A short description of data set [1]: Stability as foam additive in polyol/amine catalyst/cyclopentane mixture (fluoride ion release). The format is physicochemical. The note with it: for change of fluoride levels over time (reaction with polyol/amine catalyst mixture): over 48 hours at room temperature; for [F—] at 48 hours / [F—] at time 0: polyol/amine catalyst/foam additive/cyclopentane mixture; for [F—] at 48 hours: aged at room temperature; for [F—] at time 0: room temperature. Here is the method: The stability of Example 3 (perfluorodiethylsulfone) was measured in a standard polyol/amine catalyst/foam blowing agent mixture commonly used in making polyurethane foams. The stability was compared to CE9 (PF-5060) and CE10 (FA-188), both of which are available from 3M Company, St. Paul, Minn., US. Stability was determined by measuring the increase in fluoride ion levels over time after mixing all the components at room temperature. An increase in fluoride ion levels is a measure of the extent to which the fluorinated foam additive is reacting with the polyol/amine catalyst mixture to release fluoride ion. Fluoride ion measurements were made using a ThermoScientific ORION DUAL STAR pH/ISE channel meter and VWR 14002-788 F Fluoride specific electrode. The electrode was calibrated using fluoride standards of 1, 2, 10, and 100 ppm fluoride ion concentration in aqueous TISAB II (Total Ionic Strength Adjustment Buffer) buffer solution.
The Polyol/Amine Catalyst/Blowing Agent/Foam Additive sample mixtures were prepared by mixing ELASTAPOR P 17655R Resin (a polyol/amine catalyst blend obtained from BASF, Ludwigshafen, Germany), cyclopentane (a common foam blowing agent), and Example 3, CE9, or CE10 as a foam additive. Using a SARTORIUS A200S balance, the cyclopentane/foam additive mixtures were made first by mixing 25.5 grams of cyclopentane with 2.3 grams of foam additive. Then 43.1 grams of the ELASTAPOR polyol containing the amine catalyst was transferred to a wide mouth 4 oz glass jar and 7 g of the cyclopentane/foam additive mixture was added and shaken.
After the sample mixtures were thoroughly shaken and mixed, an aliquot was removed and an initial fluoride concentration was determined at time 0 hr. Analytical samples were prepared by diluting 1 g of the sample mixture with 1 g of isopropyl alcohol and 0.5 mL of 1N sulfuric acid in a polypropylene centrifuge tube and mixing thoroughly. The sample was further diluted with 1 g of water and mixed again. From this mixture a 1 mL aliquot was taken and mixed with 1 mL of TISAB II solution in a fresh polypropylene centrifuge tube and mixed thoroughly prior to fluoride ion measurement. An average of 3 independent fluoride measurements were used to determine the fluoride concentration of each sample using the fluoride specific electrode and meter described above. Similar measurements were taken every 24 hours. The results are summarized in Table 8 below after 0 and 48 hours.

In a further data set the test system is male Sprague Dawley rats. Put plainly: Inhalation toxicity in rats, single 4-hour whole body exposure. The format is in vivo, rat. As to the method: The inhalation toxicity potential of Example 3 was evaluated in male Sprague Dawley rats after a single 4-hour whole body exposure at atmospheric concentrations of 10,000 ppm (v/v). The test material (purity 98.84%) was administered as received at an appropriate volume to a 40-L test chamber containing 3 rats. The test material vaporized upon addition to the chamber. The air within the chamber was regenerated at appropriate intervals to maintain an 18% oxygen concentration. Three control animals were placed in another chamber filled with ambient air. The day of exposure was designated Day 0. Clinical observations were recorded during the exposure period and for 14 days after exposure. Body weights were recorded prior to exposure (Day 0), on Day 1, Day 2, and 14 days after exposure for both the test material-treated and control animals.

The nature of data set [2]: Hydrolytic stability: free fluoride in water phase after aging with deionized water. The format is physicochemical. As to the method: Duplicate samples of Example 3 and CE1 were tested for hydrolytic stability at 150° C. by placing 10 grams of test material along with 10 grams deionized water in a clean, 40 mL Monel pressure vessel, which was sealed and placed in a convection oven set at 150° C. for 24 hours. After aging, the fluoride concentrations were determined by mixing 1 mL of the water phase from each sample with 1 mL of TISAB II (Total Ionic Strength Buffer) buffer solution. Fluoride ion concentrations were then measured using an ORION EA 940 meter with an ORION 9609BNWB Fluoride-Ion Specific Electrode (ISE) (Thermo Fisher Scientific, Minneapolis, Minn., US). ORION IONPLUS Fluoride standards (1, 2, 10 and 100 ppm Fluoride) were used for the calibration of the meter.
The hydrolytic stability values of Example 3 and CE1 are reported as average parts per million by weight (ppmw) of free fluoride in water in Table 4. Higher levels of free fluoride ion concentration correspond to reduced stability.

The nature of data set [3]: Thermal stability: fluoride ion after aging neat in Monel pressure vessel. The format is physicochemical. Here is the method:
The thermal stability of Example 3 and CE1 was determined by placing duplicate 10-gram samples in clean, 40 mL Monel pressure vessels and sealing tightly. The pressure vessels were then placed in a convection oven set at 100° C. for 24 hours. After aging, each sample was mixed with a known weight of ultrapure (18.2 MΩ) water, agitated in a mechanical shaker at high speed for 15 minutes and finally centrifuged to separate the two phases. Fluoride ion concentrations were subsequently measured in the water phase as previously described. This was then followed by another experiment at 150° C. using the same method.

Some results are limits rather than exact numbers.

With `FC(F)(F)C(F)(F)C(F)(F)C(F)(F)C(F)(F)C(F)(F)F` [CE9], in data set [1], the “change of fluoride levels over time (reaction with polyol/amine catalyst mixture)” value is listed as “essentially unchanged”, the “[F—] at 48 hours” value is listed as 0.71 ppm and the “[F—] at time 0” value stood at 0.83 ppm.

Take `O=S(=O)(C(F)(F)C(F)(F)F)C(F)(F)C(F)(F)F` [Example 3, Perfluorodiethylsulfone]: the “mortality and clinical observations” value with male Sprague Dawley rats (10,000 ppm (v/v), during 4-hour exposure and throughout 14-day study) is recorded as “no mortality or abnormal clinical observations”. In addition, in the data set on male Sprague Dawley rats (10,000 ppm (v/v), single 4-hour exposure, 14-day study), the “body weight, condition and gross necropsy” value is “gained weight and were normal”. The “approximate inhalation 4-hour LC50” value in the data set on male Sprague Dawley rats (male Sprague Dawley rats, single 4-hour whole body exposure at 10,000 ppm (v/v), 14 days observation) is listed as “greater than 10,000 ppm”. In data set [2] (10 g sample + 10 g deionized water, Monel vessel, 150° C., 24 hours), the “Average F concentration after 24 hours at 150° C. with DI H2O” value was 11.55 ppmw. Further, the “Average F concentration at room temperature” value in data set [2] (hydrolytic stability test, before aging) was below 0.05 ppmw. For the same molecule, in data set [3] (neat, no water, Monel vessel), the “Average F concentration after 24 hours at 100° C.” value is listed as below 0.05 ppmw and the “Average F concentration after 24 hours at 150° C.” value stood at 0.36 ppmw. Besides, in data set [3] (thermal stability test, before aging), the “Average F concentration at room temperature” value is below 0.05 ppmw. Further, in data set [1], the “change of fluoride levels over time (reaction with polyol/amine catalyst mixture)” value is listed as “essentially unchanged”, the “[F—] at 48 hours” value amounted to 10.67 ppm and the “[F—] at time 0” value worked out at 11.74 ppm.

The record behind these values is patent US20210246886A1, “Fluorosulfones” (3M INNOVATIVE PROPERTIES COMPANY, priority 2018, published 2021).
